Like-named read-outs stand apart in the source and are kept apart here.
Target: T1, E. coli DdlB enzyme (D-alanine:D-alanine ligase) (Escherichia coli, UniProt P07862)
T1 construct: made in house; host or cells: E. coli
Experiment: biochemical
Settings: read-out: DdlB RA; for remaining activity at 2000 µM: tested concentration 2.0 mM; for remaining activity at 1800 µM: tested concentration 1.8 mM; for remaining activity at 2100 µM: tested concentration 2.1 mM; for remaining activity at 1900 µM: tested concentration 1.9 mM; for remaining activity at 1700 µM: tested concentration 1.7 mM; for remaining activity at 2500 µM: tested concentration 2.5 mM; for remaining activity at 2700 µM: tested concentration 2.7 mM; for remaining activity at 2600 µM: tested concentration 2.6 mM; for remaining activity at 2200 µM: tested concentration 2.2 mM; for remaining activity at 2300 µM: tested concentration 2.3 mM; for remaining activity at 2400 µM: tested concentration 2.4 mM; for remaining activity at 2800 µM: tested concentration 2.8 mM; for remaining activity at 3100 µM: tested concentration 3.1 mM; for remaining activity at 3200 µM: tested concentration 3.2 mM

[1] = residual activity of DdlB, fragment library screening

O=C(Nc1cccnc1)[C@H]1CCCC[C@H]1C(=O)O [Compound Y203-7528]
remaining activity at 2000 µM (fragment library screening): 91%

CCC(CC)C(=O)Nc1ccc(S(N)(=O)=O)cc1 [Compound Y203-8619]
remaining activity at 1800 µM: 81%

O=C(NC1CCCC1)[C@H]1CCCC[C@H]1C(=O)O [Compound Y203-9770]
remaining activity at 2100 µM: 91%

Cc1cc(C)n(C(=O)C2CC=CCC2C(=O)O)n1 (stereo not shown) [Compound Y203-9842]
remaining activity at 2000 µM: 90%

O=C(O)C1CCCCC1C(=O)NCc1ccc(F)cc1 (stereo not shown) [Compound Y204-1009]
remaining activity at 1800 µM: 95%

O=C(NCc1ccncc1)[C@H]1CC=CC[C@H]1C(=O)O [Compound Y204-2545]
remaining activity at 1900 µM (fragment library screening): 75%

NS(=O)(=O)c1ccc(NC(=O)CCC2CCCC2)cc1 [Compound Y204-2561]
remaining activity at 1700 µM: 87%

N#CCC(=O)N(c1ccccc1)c1ccccc1 [Compound Y204-3664]
remaining activity at 2500 µM: 89%

O=C(O)CCCC(=O)N1CCN(c2ccccc2)CC1 [Compound Y204-6418]
remaining activity at 1800 µM (fragment library screening): 99%

O=C(O)C1C2CCC(C2)C1C(=O)NC1CC1 (stereo not shown) [Compound Y205-0716]
remaining activity at 2700 µM: 93%

NS(=O)(=O)c1ccc(CNC(=O)c2ccncc2)cc1 [Compound Y205-1594]
remaining activity at 1700 µM: 102%

CCS(=O)(=O)Nc1cc(C(C)(C)C)on1 [Compound Y206-0720]
remaining activity at 2600 µM: 91%

O=C(O)CCC(=O)NC1C2CC3CC(C2)CC1C3 (stereo not shown) [Compound Y206-2966]
remaining activity at 2000 µM: 90%

Cc1ccc2c(c1)CCCN2C(=O)CCC(=O)O [Compound Y206-3286]
remaining activity at 2000 µM (fragment library screening): 90%

O=C(O)[C@@H]1[C@H]2CC[C@H](CC2)[C@@H]1C(=O)NCc1ccco1 [Compound Y206-3693]
remaining activity at 1800 µM (fragment library screening): 92%

CC1CCCCC1NS(=O)(=O)c1ccccc1 (stereo not shown) [Compound Y206-4071]
remaining activity at 2200 µM: 91%

Cc1ccc(S(=O)(=O)NC2CC2)c(C)c1 [Compound Y206-5066]
remaining activity at 2700 µM: 94%

Cc1c(C)c(C)c(S(=O)(=O)NC(C)C)c(C)c1C [Compound Y206-5269]
remaining activity at 2200 µM (residual activity): 77%

O=S(=O)(c1ccccc1)N1CCN2CCCC2C1 (stereo not shown) [Compound Y206-5298]
remaining activity at 2300 µM (residual activity): 92%

CN(C)CC(=O)Nc1ccc(Cl)cn1 [Compound Y206-6252]
remaining activity at 2300 µM: 95%

CCS(=O)(=O)Nc1cccc(F)c1 [Compound Y207-1326]
remaining activity at 3000 µM (tested concentration 3.0 mM): 92%

NS(=O)(=O)c1ccc(CNC(=O)C2CCCC2)cc1 [Compound Y207-3980]
remaining activity at 1800 µM: 93%

CNS(=O)(=O)c1ccc2c(c1)CCN2C(C)=O [Compound Y300-1529]
remaining activity at 2400 µM: 90%

Cc1ccccc1CS(=O)(=O)N1CCCC(C)C1 (stereo not shown) [Compound Y300-2308]
remaining activity at 2200 µM (residual activity): 95%

CN(C)S(=O)(=O)Cc1ccccc1F [Compound Y300-2671]
remaining activity at 2500 µM: 95%

O=S(=O)(Cc1ccccc1F)N1CCOCC1 [Compound Y300-2685]
remaining activity at 2100 µM: 95%

Cc1ccccc1CS(=O)(=O)N(C)C [Compound Y300-2769]
remaining activity at 2800 µM: 87%

Cc1cccc(CS(=O)(=O)N2CCCC2)c1 [Compound Y300-2952]
remaining activity at 2300 µM: 98%

Cc1ccc(CS(=O)(=O)N2CCc3ccccc32)cc1 [Compound Y300-3078]
remaining activity at 2100 µM (residual activity): 112%

CCn1cc(C(=O)Nc2ccccc2C(=O)O)cn1 [Compound Y501-0105]
remaining activity at 1900 µM (residual activity): 88%

Cc1ccc(-c2noc(C(=O)O)n2)cc1 [Compound Y501-1890]
remaining activity at 2500 µM: 77%

O=C(O)c1cc(Br)cc(Br)c1O [Compound Y501-3736]
remaining activity at 1700 µM: -39%

Cc1nn(C(F)F)cc1S(=O)(=O)N1CCC(C)CC1 [Compound Y501-4822]
remaining activity at 1900 µM (residual activity): 97%

CCN(C(=O)c1n[nH]cc1Cl)c1ccccc1 [Compound Y501-5069]
remaining activity at 2400 µM: 95%

Cc1c(Br)c(C(=O)O)nn1C [Compound Y501-6296]
remaining activity at 2300 µM (residual activity): 107%

CCn1cc(Br)c(C(=O)O)n1 [Compound Y501-6363]
remaining activity at 2300 µM (residual activity): 90%

Oc1cc(-c2ccccc2)n[nH]1 [Compound Y501-8801]
remaining activity at 3100 µM: 102%

N#Cc1cnn2c1NC(C1CC1)CC2C(F)(F)F (stereo not shown) [Compound Y501-9194]
remaining activity at 2300 µM: 83%

Cc1cccc(-c2ccnc3c(C(=O)O)cnn23)c1 [Compound Y502-0116]
remaining activity at 2000 µM (fragment library screening): 6%

Cc1c(S(=O)(=O)NC2CCCCCC2)cnn1C [Compound Y502-6613]
remaining activity at 1800 µM (residual activity): 94%

CCn1nccc1[C@H](C)NC(=O)[C@H]1CCCC[C@H]1C(=O)O [Compound Y503-1571]
remaining activity at 1700 µM (fragment library screening): 93%

Cc1ccn(C(C)C(=O)O)n1 (stereo not shown) [Compound Y503-2318]
remaining activity at 3200 µM: 95%

O=C(O)c1ccn(COc2ccc(Cl)cc2Cl)n1 [Compound Y503-2333]
remaining activity at 1700 µM (residual activity): 96%

Cc1nn(C)cc1-c1cc(C(=O)O)n[nH]1 [Compound Y503-2347]
remaining activity at 2400 µM: 95%

Cc1cc(C(=O)O)nn1C(F)F [Compound Y503-2420]
remaining activity at 2800 µM: 85%

Oc1cc(-c2ccco2)n[nH]1 [Compound Y503-3143]
remaining activity at 3300 µM (tested concentration 3.3 mM): 98%

Cn1ncc(C(=O)O)c1C(=O)NCC1CCCO1 (stereo not shown) [Compound Y504-5972]
remaining activity at 2000 µM: 96%

Cc1c(-c2cc(C(=O)O)n3nccc3n2)cnn1C [Compound Y504-7677]
remaining activity at 1900 µM: 86%

O=C(NCc1cc[nH]n1)[C@H]1CC=CC[C@H]1C(=O)O [Compound Y504-7917]
remaining activity at 2000 µM (fragment library screening): 88%

Cc1onc(C(=O)O)c1COc1ccc([N+](=O)[O-])cc1 [Compound Y504-8568]
remaining activity at 1800 µM (fragment library screening): 97%

Cc1cc(C(=O)O)n2nc(C)c(Cl)c2n1 [Compound Y504-8761]
remaining activity at 2200 µM (residual activity): 98%

OCCn1cc(Br)cn1 [Compound Y504-8814]
remaining activity at 2900 µM (tested concentration 2.9 mM): 97%

CCn1ncc(Cn2cc(Cl)c(N)n2)c1C [Compound Y504-8851]
remaining activity at 2100 µM: 96%

COCn1nc(C)c(N)c1C [Compound Y504-8876]
remaining activity at 3900 µM (residual activity of DdlB, fragment library screening, tested concentration 3.9 mM): 92%

COC(=O)Cn1nc(C(F)F)c2c1CCCC2 [Compound Y504-8961]
remaining activity at 2000 µM: 94%

CC1(C)CC(=O)c2cnc(NC3CC3)nc2C1 [Compound Y600-1530]
remaining activity at 2400 µM: 89%

CCOC1CN=C2C(C#N)=CC=CN21 (stereo not shown) [Compound Y600-6204]
remaining activity at 2200 µM: 92%

CCc1nc2ccc(C(N)=O)cc2nc1CC [Compound Z601-0869]
remaining activity at 2400 µM: 88%

CCn1c(C(=O)NC(C)C)cc2occc21 [Compound Z601-0941]
remaining activity at 2300 µM: 96%

CCC1CCCCN1C(=O)C1CCCN1C(C)=O (stereo not shown) [Compound Z601-4855]
remaining activity at 2400 µM: 74%

Cc1ccc(Cn2ccnc2C(N)=O)cc1 [Compound Z601-5404]
remaining activity at 2600 µM: 99%

CNC(=O)c1cc(C)nc2ccc(C(C)C)cc12 [Compound Z601-7136]
remaining activity at 2100 µM: 97%

Cn1c(=O)cnc2ccc(N3CCCCCC3)nc21 [Compound Z601-8402]
remaining activity at 2300 µM: 83%

CCS(=O)(=O)N1CCCN(C(=O)C2CC2)CC1 [Compound Z603-0719]
remaining activity at 2300 µM: 98%

CC(C)n1nnc2cc(C(N)=O)ccc21 [Compound Z606-2126]
remaining activity at 2400 µM: 92%

Cc1cc(C2CCCN2C(=O)c2ccc(F)c(F)c2)on1 (stereo not shown) [Compound Z632-2808]
remaining activity at 1700 µM (residual activity): 98%

CCCc1nnc(-c2ccncc2)o1 [Compound Z632-7367]
remaining activity at 2600 µM: 94%

CC(C)c1nnc(-c2cnccn2)o1 [Compound Z632-7479]
remaining activity at 2600 µM: 105%

O=C1Nc2ncccc2OC1c1ccccc1 (stereo not shown) [FF01-0341]
remaining activity at 2200 µM: 106%

CCn1c(C(=O)N2CCC(C(=O)O)CC2)cc2occc21 [FF01-0413]
remaining activity at 1900 µM (residual activity): 110%

Cc1cc2n(n1)CCC(=O)N2CCCC(=O)O [FF01-0590]
remaining activity at 2300 µM: 92%

CN1CCN(C)C1c1ccccc1O [FF01-2467]
remaining activity at 3100 µM: 93%

O=C(O)C1CCN(c2cnc(N3CCCC3)nc2)CC1 [FF01-3116]
remaining activity at 2200 µM (residual activity): 69%

CN1CCN(C(=O)CCC(=O)O)c2cccnc21 [FF01-3162]
remaining activity at 2400 µM: 65%

CC1Cc2ccc(CN)cc2N1C(=O)c1ccccc1 (stereo not shown) [FF01-3167]
remaining activity at 2300 µM (residual activity): 51%

c1cnc2[nH]cc(CCN3CCNCC3)c2c1 [FF01-3277]
remaining activity at 2200 µM (residual activity): 62%

NCCCN1CCCC1=O [FF01-3614]
remaining activity at 4200 µM (residual activity of DdlB, fragment library screening, tested concentration 4.2 mM): 90%

Cc1nn(C(C)C(=O)O)cc1Cl (stereo not shown) [FF01-4477]
remaining activity at 2700 µM [1]: 89%

Cc1nc(N)nc(C)c1CCC(=O)O [FF01-4599]
remaining activity at 3100 µM: 91%

Cc1nn(Cc2c(C(=O)O)noc2C)c(C)c1C [FF01-5078]
remaining activity at 2000 µM: 81%

O=C1CSCC(C(=O)O)N1 (stereo not shown) [FF01-5725]
remaining activity at 3100 µM: 107%

N#CCS(=O)(=O)C1CCCCC1 [FF20-0194]
remaining activity at 3200 µM [1]: 101%

— article PMC9718554, “Discovery of a fragment hit compound targeting D-Ala:D-Ala ligase of bacterial peptidoglycan biosynthesis” (Journal of Enzyme Inhibition and Medicinal Chemistry, 2022)
